From patent publication US11274095B2, “Modulators of methyl modifying enzymes, compositions and uses thereof” (Constellation Pharmaceuticals, Inc., priority 2018, dated 2022)
Read-outs that look alike come from different tables or passages of the source.

Columns and labels:
[1] = target: PRC2 containing wt EZH2 (Homo sapiens (Human), UniProt Q15910); experiment: EZH2 residence time assay (100-fold dilution of enzyme-inhibitor complex); format: biochemical
Procedure: EZH2 residence time assay: Compound residence times were assessed by monitoring the recovery of enzyme activity following a 100-fold dilution of pre-formed enzyme-inhibitor complex (dilution reaction), and comparing it to the activity of an undiluted control with the same final concentrations of all reagents (control reaction). Enzyme activity was measured by incorporation of ^3H-SAM into a biotinylated H3 peptide. For the dilution reaction, 20 nM PRC2 containing wt EZH2 (pentameric complex prepared in-house) was pre-incubated with 1 μM activating peptide (H2N-RKQLATKAAR(Kme3)SAPATGGVKKP-amide) and compound at 600 times its Ki for 2 h in 40 μL of buffer (50 mM Tris pH 8.5, 4 mM DTT, 1 mM MgCl2, 0.07 mM Brij-35, and 0.1 mg/mL BSA), then diluted 100-fold and the reaction initiated by transferring 1.4 μL to a 138.6 μL volume of buffer containing 1 μM activating peptide, 5.05 μM substrate peptide (H2N-[…]-NTPEGbiot), 1.01 μM SAM, and 1.01 μM ^3H-SAM. […] Reactions were quenched at various time points spanning up to 10 hours, by transferring 8μL aliquots from the reaction vessel to a plate containing 8μL per well of STOP solution (50 mM Tris pH 8.5, 200 mM EDTA, 2 mM SAH). After the last time point, 12 μL of the quenched solutions were transferred to a streptavidin coated FlashPlate (PerkinElmer) containing 40 μL per well of STOP solution, incubated 1-8 h, washed, and read in a TopCount plate reader (PerkinElmer).
A custom script was used to fit control reaction progress data to a straight line and dilution reaction progress data:
[formula] Where y is the product formed, t is the reaction time, vi is the initial velocity, vs is the steady state velocity, and kobs is the rate constant for the transition from the initial velocity phase of the curve to the steady state velocity phase of the curve. In fitting the dilution reaction progress data, vs was constrained to the slope of the line fitted to the control reaction progress data. The fitted value of kobs was then transformed into residence time:
[formula] Where τ is residence time, Ki is the inhibition constant, [EI] is the calculated equilibrium concentration of enzyme-inhibitor complex, [E] is the calculated equilibrium concentration of free enzyme, and [I] is the calculated equilibrium concentration of free inhibitor.

[2] = system: Karpas-422 cell lines; experiment: Karpas-422 viability assay (Cell Titer-Glo, Day 8); format: cell-based; details: Homo sapiens, KARPAS-422, 192 h, Cell Titer-Glo on Day 8
Procedure: Karpas-422 cell lines were obtained from DSMZ (Braunschweig, Germany) and were grown in RPMI-1640 media. All media contained 10% fetal bovine serum (FBS) and 1% penicillin/streptomycin (Invitrogen). 20K cells per well were plated onto 96 well compound coated plates. Cells were split and seeded at original plating density (based on the DMSO well counts) every 4 days into plates containing fresh EZH2 inhibitors. Relative cell numbers were assessed by Cell Titer-Glo luminescent cell viability assay (Promega) on Day 8. GraphPad Prism 5 was used for curve fitting and GI50 values were reported.

[3] = system: H3K27me3 in Hela cells; experiment: H3K27me3 Alpha Hela Assay (AlphaLISA); format: cell-based; details: Homo sapiens, HeLa, 72 h
Procedure: H3K27me3 Alpha Hela Assay (AlphaLISA). Ten different doses of each test compound (in a series of 3-fold dilutions) were plated in duplicate 384-well tissue culture treated plates (Catalog #6007680; Perkin Elmer, Waltham, Mass.). Hela cells grown in culture were trypsinized and counted using a Countess® cell counter (Catalog #C10281; Life Technologies, Grand Island, N.Y.). Cell were diluted to 67,000 cells per mL in10% DMEM (Catalog #10569-010 Life Technologies, Grand Island, N.Y.) and 15 μL (1,000 cells) were plated into each well using the Biotek MicroFlo™ Select Dispenser (BioTek Instruments, Inc. Vermont, USA),) of the 384-well plate. Plates were incubated at 37° C./5% CO2 for 72 hrs. One of the duplicate plates was processed for HeLa assay and the other for viability. 5 μL of Cell-Histone Lysis buffer (1×) (Catalog #AL009F1 Perkin Elmer; Waltham, Mass.) per well was added to the plate processed for AlphaLISA and the plate was incubated at RT for 30 minutes on a plate shaker with low speed (Model# 4625-Q Thermo Scientific; Waltham, Mass.). Then, 10 μL per well Histone Extraction buffer (catalog #AL009F2; Perkin Elmer; Waltham, Mass.) was added and the plate further incubated at RT for 20 min on plate shaker with low speed. Next, 10 μL of 5× mix of anti-K27me3 acceptor beads plus Biotinylated anti-Histone H3 (C-ter) Antibody (diluted to 3 nM final) (Catalog #AL118 Perkin Elmer; Waltham, Mass.) was added in each well. Dilution of the acceptor beads and anti-Histone H3 was done in 1× Histone Detection buffer (Catalog #AL009F3 Perkin Elmer; Waltham, Mass.) which was produced by diluting the 10× stock provided. The plate was sealed with an aluminum plate sealer and incubated at 23° C. for 60 min. Next, 10 μL 5× solution of Streptavidin Donor beads were added (Catalog #6760002 Perkin Elmer; Waltham, Mass.) (20 μg/mL final in 1× Histone Detection Buffer), =plate was sealed with Aluminum plate sealer and incubated at 23° C. for 30 min. The plates were then read using an EnVision-Alpha Reader (model #2104 Perkin Elmer; Waltham, Mass.). […]

[4] = recovery of enzyme activity after 100-fold dilution, read-out: EZH2 residence time (converted)

Sequence of PRC2 containing wt EZH2 (Q15910 whole entry): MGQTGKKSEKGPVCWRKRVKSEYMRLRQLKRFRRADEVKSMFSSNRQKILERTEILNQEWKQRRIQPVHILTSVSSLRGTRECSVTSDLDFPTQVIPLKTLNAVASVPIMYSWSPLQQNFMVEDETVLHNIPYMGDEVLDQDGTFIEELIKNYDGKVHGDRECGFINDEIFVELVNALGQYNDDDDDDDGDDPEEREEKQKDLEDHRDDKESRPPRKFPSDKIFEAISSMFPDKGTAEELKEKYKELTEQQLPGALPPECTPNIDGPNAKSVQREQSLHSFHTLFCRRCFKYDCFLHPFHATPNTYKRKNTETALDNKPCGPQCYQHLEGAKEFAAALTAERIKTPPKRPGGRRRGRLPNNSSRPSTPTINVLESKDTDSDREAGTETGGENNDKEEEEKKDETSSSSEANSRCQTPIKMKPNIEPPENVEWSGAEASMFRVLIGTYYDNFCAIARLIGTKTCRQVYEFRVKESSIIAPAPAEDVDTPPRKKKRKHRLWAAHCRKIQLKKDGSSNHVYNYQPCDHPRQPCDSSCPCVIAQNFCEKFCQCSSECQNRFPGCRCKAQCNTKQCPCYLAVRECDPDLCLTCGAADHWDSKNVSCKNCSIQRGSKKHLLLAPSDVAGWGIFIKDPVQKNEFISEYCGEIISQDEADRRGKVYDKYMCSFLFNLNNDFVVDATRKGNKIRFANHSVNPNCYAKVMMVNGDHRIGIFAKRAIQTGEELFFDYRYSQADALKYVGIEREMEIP
Sequence of PRC2 containing wt EZH2 (O75530 whole entry partner): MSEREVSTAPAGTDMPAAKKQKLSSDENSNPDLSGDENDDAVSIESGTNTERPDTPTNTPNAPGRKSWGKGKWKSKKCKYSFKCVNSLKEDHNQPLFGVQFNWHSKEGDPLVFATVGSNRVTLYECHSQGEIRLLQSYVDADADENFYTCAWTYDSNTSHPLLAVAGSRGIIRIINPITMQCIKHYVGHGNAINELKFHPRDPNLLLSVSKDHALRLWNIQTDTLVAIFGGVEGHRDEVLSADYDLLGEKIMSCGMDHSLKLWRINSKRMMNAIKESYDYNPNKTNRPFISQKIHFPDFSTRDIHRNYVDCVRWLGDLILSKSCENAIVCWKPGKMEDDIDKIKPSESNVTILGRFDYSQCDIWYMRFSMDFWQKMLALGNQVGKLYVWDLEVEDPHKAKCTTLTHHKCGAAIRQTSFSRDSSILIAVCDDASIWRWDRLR
Sequence of PRC2 containing wt EZH2 (Q15022 whole entry partner): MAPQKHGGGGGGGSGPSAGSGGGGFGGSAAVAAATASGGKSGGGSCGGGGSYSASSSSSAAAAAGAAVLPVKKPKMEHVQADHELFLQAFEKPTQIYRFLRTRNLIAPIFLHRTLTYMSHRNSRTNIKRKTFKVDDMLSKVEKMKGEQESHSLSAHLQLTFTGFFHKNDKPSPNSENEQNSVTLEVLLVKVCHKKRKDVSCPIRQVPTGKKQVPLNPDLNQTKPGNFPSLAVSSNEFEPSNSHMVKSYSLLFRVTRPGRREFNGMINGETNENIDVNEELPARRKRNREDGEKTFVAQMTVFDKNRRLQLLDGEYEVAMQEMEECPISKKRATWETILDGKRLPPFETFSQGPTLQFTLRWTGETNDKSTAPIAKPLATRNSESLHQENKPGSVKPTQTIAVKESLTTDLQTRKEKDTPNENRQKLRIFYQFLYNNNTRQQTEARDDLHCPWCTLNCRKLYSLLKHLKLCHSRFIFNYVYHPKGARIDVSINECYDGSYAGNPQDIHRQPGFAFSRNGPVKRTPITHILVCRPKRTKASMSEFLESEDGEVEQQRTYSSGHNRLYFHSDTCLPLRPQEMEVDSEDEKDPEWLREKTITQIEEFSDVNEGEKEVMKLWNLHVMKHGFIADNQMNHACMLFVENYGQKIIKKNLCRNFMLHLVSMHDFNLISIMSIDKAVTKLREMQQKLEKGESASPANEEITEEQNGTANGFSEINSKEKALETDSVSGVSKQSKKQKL
Sequence of PRC2 containing wt EZH2 (Q09028 whole entry partner): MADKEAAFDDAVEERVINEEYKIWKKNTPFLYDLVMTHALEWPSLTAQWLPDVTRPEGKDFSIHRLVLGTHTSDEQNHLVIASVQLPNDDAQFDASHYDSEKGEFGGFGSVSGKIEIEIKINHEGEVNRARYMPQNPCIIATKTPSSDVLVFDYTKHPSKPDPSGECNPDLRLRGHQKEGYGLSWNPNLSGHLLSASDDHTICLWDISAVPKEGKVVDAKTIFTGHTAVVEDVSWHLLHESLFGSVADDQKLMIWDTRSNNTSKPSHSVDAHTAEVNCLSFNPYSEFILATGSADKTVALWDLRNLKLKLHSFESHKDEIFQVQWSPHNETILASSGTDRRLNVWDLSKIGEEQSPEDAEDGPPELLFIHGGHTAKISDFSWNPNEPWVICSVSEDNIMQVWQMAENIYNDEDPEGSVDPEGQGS
Sequence of PRC2 containing wt EZH2 (Q6ZN18 whole entry partner): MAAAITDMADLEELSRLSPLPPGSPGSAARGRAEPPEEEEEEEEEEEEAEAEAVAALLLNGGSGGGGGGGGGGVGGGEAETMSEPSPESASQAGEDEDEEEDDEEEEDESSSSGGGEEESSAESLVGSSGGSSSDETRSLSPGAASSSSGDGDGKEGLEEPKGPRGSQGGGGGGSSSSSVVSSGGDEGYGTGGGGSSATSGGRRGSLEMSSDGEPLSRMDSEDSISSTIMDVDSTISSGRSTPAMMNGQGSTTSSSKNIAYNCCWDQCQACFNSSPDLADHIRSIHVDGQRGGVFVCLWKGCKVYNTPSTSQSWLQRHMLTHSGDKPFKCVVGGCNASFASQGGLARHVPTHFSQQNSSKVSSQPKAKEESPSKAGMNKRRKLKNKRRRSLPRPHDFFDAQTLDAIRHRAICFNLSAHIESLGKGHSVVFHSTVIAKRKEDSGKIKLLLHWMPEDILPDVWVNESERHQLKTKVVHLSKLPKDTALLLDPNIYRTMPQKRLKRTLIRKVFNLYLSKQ

Row | Structure (SMILES) | residence time ([1]; read-out: EZH2 residence time) [min] | GI50 [2] [nM] | EC50 [3] [nM] | residence time [1, 4] [min]
1 | CSc1cc(C)[nH]c(=O)c1CNC(=O)c1cc(Cl)c2c(c1C)OC(C)(C1CCC(N3CC(OC(F)F)C3)CC1)O2 (single isomer, unassigned) [Example 1, 7-chloro-2-(4-(3-(difluoromethoxy)azetidin-1-yl)cyclohexyl)-2,4-dimethyl-N-((6-methyl-4-(methylthio)-2-oxo-1,2-dihydropyridin-3-yl)methyl)benzo[d][1,3]dioxole-5-carboxamide] | > 6000 | 3.9 | 0.52 | 
2 | Cc1cc(Cl)c(CNC(=O)c2cc(Cl)c3c(c2C)OC(C)(C2CCC(N4CC(OC5CC5)C4)CC2)O3)c(=O)[nH]1 (single isomer, unassigned) [Example 8, 7-chloro-N-((4-chloro-6-methyl-2-oxo-1,2-dihydropyridin-3-yl)methyl)-2-(4-(3-cyclopropoxyazetidin-1-yl)cyclohexyl)-2,4-dimethylbenzo[d][1,3]dioxole-5-carboxamide] |  | 5 | 0.52 | > 6000
3 | CSc1cc(C)[nH]c(=O)c1CNC(=O)c1cc(Cl)c2c(c1C)OC(C)(C1CCC(N3CC(OC4CC4)C3)CC1)O2 (single isomer, unassigned) [Example 9] |  | 3.7 | 0.61 | > 6000
4 | CSc1nc(C)[nH]c(=O)c1CNC(=O)c1cc(Cl)c2c(c1C)OC(C)(C1CCC(N3CC(OC(F)F)C3)CC1)O2 (single isomer, unassigned) [Example 10] |  | 20 | 1.9 | 2220
5 | CSc1cc(C)[nH]c(=O)c1CNC(=O)c1cc(Cl)c2c(c1C)OC(C)(C1CCC(N3CC(F)C3)CC1)O2 (single isomer, unassigned) [Example 12] |  | 4.4 | 0.59 | > 6000
6 | Cc1cc(Cl)c(CNC(=O)c2cc(Cl)c3c(c2C)OC(C)(C2CCC(N4CC(OC(F)F)C4)CC2)O3)c(=O)[nH]1 (single isomer, unassigned) [Example 13] |  | 9.7 | 0.81 | 2880
7 | COC1CN(C2CCC(C3(C)Oc4c(Cl)cc(C(=O)NCc5c(SC)cc(C)[nH]c5=O)c(C)c4O3)CC2)C1 (single isomer, unassigned) [Example 17, 7-chloro-2-(4-(3-methoxyazetidin-1-yl)cyclohexyl)-2,4-dimethyl-N-((6-methyl-4-(methylthio)-2-oxo-1,2-dihydropyridin-3-yl)methyl)benzo[d][1,3]dioxole-5-carboxamide] |  | 3.5 | 0.33 | > 6000
